Series [1] deals with L1210 tumors expressing TK2-N93D. The series is described as follows: microPET/CT of SCID mice bearing L1210-PRG tumors (TK2-N93D). The series is classed as in vivo. Particulars: for in vivo L-18F-FMAU uptake compared with WT TK2-expressing tumors: 3 h post-injection. An excerpt:
To compare TK2, TK2-N93D and HSV1-sr39tk in vivo, PRG-expressing L1210 cells were implanted subcutaneously in SCID mice that were then scanned with L-[^18F]FMAU (FIG. 10A) and [^18F]FHBG (FIG. 10C) on consecutive days. […] Signals obtained with sr39tk were slightly higher than those obtained with the human TK2-N93D PRG (the difference was not statistically significant). […] L-[^18F]FMAU accumulation in TK2-N93D transduced tumors was ˜20 times higher than the accumulation in tumors transduced with the control (eYFP only) vector. While this ratio is higher than the 6.67 ratio reported for WT TK2 as a PRG with D-[^18F]FEAU as the PRP (see, e.g. Ponomarev, V., et al. J Nucl Med 48:819-826, 2007), the HSV1-sr39tk/[^18F]FHBG combination still outperforms the TK2-N93D/L-[^18F]FMAU combination by ˜2-fold. The significance of the 2-fold difference for the sensitivity of the new TK2-N93D PRG can be further investigated in the animal models discussed below (see, e.g. Gerth, M. L., et al. Biochem Biophys Res Commun 354:802-807, 2007; Liu, L., et al. Nucleic Acids Res 37:4472-4481, 2009; Iyidogan, P., et al. Biochemistry 47:4711-4720, 2008; Lutz, S., et al. Chimia (Aarau) 63:737-744 2009).
(§1) Animal studies were approved and carried out according to specific guidelines. C57/BL6 mice were injected with the indicated probe and underwent micro-PET/CT analyses at 1- and 3-h post probe injection (Inveon, Siemens Medical Solutions USA Inc.; microCAT; Imtek Inc.). For tumor imaging studies, SCID mice were injected subcutaneously on day −7 in the right and left flanks with 1×10^6 L1210-PRG-expressing cells in 50% v/v phosphate-buffered saline and 50% v/v Matrigel™ (BD Biosciences). For imaging experiments, mice were kept warm and under gas anesthesia (2% v/v isoflurane) and were injected intravenously with 200 μCi of ^18F-labeled probes. A 3-h interval was allowed between probe administration and microPET/CT scanning Static microPET images were acquired for 600 s. Image data were evaluated in three-dimensional histograms and reconstructed with a zoom factor of 2.1 using three-dimensional ordered set expectation maximization (OSEM) with 2 iterations followed by MAP (maximum a posteriori) reconstruction with 18 iterations (beta=0.1). Images were analyzed using OsiriX Imaging Software Version 3.8.

Series [2] can be described thus: Human whole-body PET/CT biodistribution of PET reporter probes. The series is classed as in vivo. Conditions: for accumulation in myocardium / heart and liver: healthy volunteers; for intestinal / GI tract activity compared with 18F-FHBG / tracer background within abdomen and pelvis: human; for tracer background within abdomen and pelvis: whole-body PET/CT. The source says:
All studies involving human volunteers were approved. A healthy person and a healthy volunteer were recruited for the L-^18F-FMAU biodistribution study. Each volunteer received a bolus intravenous injection of ˜56 MBq (1.5 mCi) sterile L-^18F-FMAU and had four consecutive whole-body (starting from just above the head to above the knees, 6 bed positions, 5-min scan at each bed position) PET scans (Biograph 64, Siemens), with the first scan starting shortly after intravenous injection of L-^18F-FMAU. A low dose CT scan was also obtained for attenuation correction. Volunteers urinated after all scans had been performed. The region of interest analysis was performed to measure mean standard uptake values of L-^18F-FMAU in major organs/tissues. To illustrate the biodistribution of ^18F-FHBG, unpublished scan from a previous study (see, e.g. Yaghoubi, S. S., et al. (2009) Nat. Clin. Pract. Oncol. 6, 53-58) was used.

Series [3] is described as follows: Biodistribution of PET reporter probes in mice (microPET/CT). The series is classed as in vivo, C57/BL6 mice. As for the experimental part: To identify candidate PRPs, eight nucleoside analogs (FIG. 7A) were synthesized that were amenable to ^18F labeling (the first criterion for PRPs). To identify PRP candidates with rapid clearance from normal tissues and low overall background (second criterion for PRGs), biodistribution studies in mice were performed. It was observed that natural (D) nucleosides had higher background than non-natural (L) nucleoside analogs. […] The next step was to identify a human nucleoside kinase that phosphorylates L-[^18F]FMAU and L-[^18F]FEAU, and can be converted into a new PRG that matches four criteria:
Initially, a group of nucleoside analogs amenable to fluorine-18 labeling were identified. These PET tracers, 5 of which were novel, were then screened to determine their biodistribution in C57/BL6 mice (n=3 for each PET tracer) through dynamic microPET scans. […] Rational design is utilized to introduce mutations into human nucleoside kinase thymidine kinase 2 (TK2) to improve the affinity of the kinase for the top candidate probe. The sensitivity and specificity of the novel PET reporter probe/gene pair was then determined in vitro and in vivo using a murine cancer model.
as §1

Another series has as its system Baf-3 cells. Briefly: Test of mutant htk2 reporter genes in Baf-3 cells. In kind it is cell-based. An excerpt: The sensitivity of the described mutant htk2 imaging reporter genes can be evaluated through cell culture assays and PET imaging in mouse tumor models. […] Further tests regarding the effect of expressing these reporter genes on various cells can be used to determine other potential targets. […] Several enhanced htk2 mutant reporter genes have been designed and tested. Though the examples herein describe different probes and investigate the L probes mainly in mice, other mammals and in particular, humans are also within the scope of the invention. Silico models can be used to derive additional enhanced mutants from human htk2.

SMILES strings stand for the structures. “Also recorded” adds a separate entry of the source.

Turning to `Cc1cn([C@H]2O[C@@H](CO)[C@H](O)[C@H]2[18F])c(=O)[nH]c1=O` [L-^18F-FMAU, 2′-deoxy-2′-^18F-5-methyl-1-β-L-arabinofuranosyluracil], the “in vivo L-18F-FMAU uptake compared with WT TK2-expressing tumors” value is “nearly double” in series [1], “two-fold increase” in series [1] (listed as 18F-L-FMAU) and “improved accumulation” in series [1] (listed as L-[^18F]FMAU). In addition, the “L-[18F]FMAU accumulation relative to tumors transduced with control (eYFP only) vector” value in series [1] (3 hrs post-injection) was around 20 times. In series [2] (2 h post-administration), the “tissues with relatively high signals” value was “relatively high signals were observed in liver, kidneys, gall bladder, bladder, and the GI tract”. Besides, in series [2] (at 2 h), the “liver activity compared with 18F-FHBG” value is “more intense activity”. Besides, the “uptake pattern in healthy volunteer” value in series [2] (first in human study, FIG. 20) was “mainly in its clearance routes, liver and bladder, with relatively low accumulation in intestines and some accumulation in the heart”. Further, the “accumulation in myocardium / heart and liver” value in series [2] is “accumulation was also observed in the myocardium; also recorded: accumulates in the myocardium and liver”; in series [2] (listed as L-[^18F]FMAU) it was “accumulates in these tissues”. Also, the “intestinal / GI tract activity compared with 18F-FHBG” value in series [2] is reported as “lower than that of ^18F-FHBG”; in series [2] (listed as 18F-L-FMAU) it was “lower intestinal background”. The “tracer background within abdomen and pelvis” value in series [2] (listed as L-[^18F]-FMAU) is on record as “very low background in abdominal cavity”; in series [2] (listed as L-[^18F]FMAU) it was “very low tracer background”. In addition, the “accumulation in the liver” value was “accumulates in the liver” in series [3] (1-h post injection (data not shown)) and “neither probe showed any accumulation” in series [3] (3-h time point). Further, the “accumulation in the gallbladder” value in series [3] (3 h after administration) is recorded as 1.68±0.46 % injected dose/g. Moreover, the “retention in the thoracic cavity” value in series [3] (3 h after administration) was “very low retention”. In addition, the “signals in the GI tract” value in series [3] (3 h after administration) is recorded as “only detected in the lower GI tract”. Moreover, the “overall background (biodistribution)” value in series [3] (candidate 18F nucleoside analog probes in mice, FIG. 7B) is listed as “lowest overall background”. Further, the “non-specific GI signals” value in series [3] (increasing uptake time from 1 to 3 hours) is given as “almost completely eliminated”. Also, in series [3] (mice), the “GI activity compared with 18F-FHBG-injected mice” value is recorded as “significantly less intense”. Also, in the series on Baf-3 cells, the “test of reporter system with probe” value is given as “successfully tested”.

These data come from patent US20140248212A1, “NON-IMMUNOGENIC POSITRON EMISSION TOMOGRAPHY REPORTER GENE SYSTEMS” (THE REGENTS OF THE UNIVERSITY OF CALIFORNIA, priority 2011, published 2014).
